Results published in patent US20240270762A1, “PENICILLIN-BINDING PROTEIN INHIBITORS” (priority 2021, published 2024).
In brackets after ≈: the same amount, converted by molar mass.

Key:
[1] = molecular target: T1, PBP3 from Acinetobacter baumannii (ATCC 19606) (Acinetobacter baumannii, UniProt A0ABX6CK25); assay: Bocillin-FL fluorescence polarization competition binding, A. baumannii PBP3; settings: fluorescence polarization competition binding assay using Bocillin-FL; read-out: A. baumannii PBP3 Potency
T1 sequence (A0ABX6CK25 64-610): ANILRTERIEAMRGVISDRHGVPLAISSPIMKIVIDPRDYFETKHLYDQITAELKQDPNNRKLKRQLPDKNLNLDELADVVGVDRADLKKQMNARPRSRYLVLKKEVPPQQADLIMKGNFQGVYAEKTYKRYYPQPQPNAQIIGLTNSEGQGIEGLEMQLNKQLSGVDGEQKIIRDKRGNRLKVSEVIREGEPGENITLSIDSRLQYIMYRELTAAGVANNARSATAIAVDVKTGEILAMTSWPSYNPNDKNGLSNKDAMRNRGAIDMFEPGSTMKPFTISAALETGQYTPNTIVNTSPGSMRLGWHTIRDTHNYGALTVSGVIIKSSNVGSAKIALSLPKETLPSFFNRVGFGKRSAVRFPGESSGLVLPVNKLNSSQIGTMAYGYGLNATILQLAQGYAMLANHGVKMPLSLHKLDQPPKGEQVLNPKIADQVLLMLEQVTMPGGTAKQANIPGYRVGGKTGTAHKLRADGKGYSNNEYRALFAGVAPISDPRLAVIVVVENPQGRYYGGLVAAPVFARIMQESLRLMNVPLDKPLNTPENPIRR
How it was run: (§1)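 Purified PBP was preincubated with inhibitor (E. coli PBP3 1.5 μM, 30 min; P. aeruginosa PBP3 0.75 μM, A. baumannii PBP3 0.2 μM and PBP1a 1 μM, 15 min), then Bocillin-FL (0.1 μM; 0.05 μM for PBP1a) added and FP read up to 60 min. EC50 = 50% loss of bound probe.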

A. baumannii CDC-0033 = assay: microbe, parasite or virus in culture; assay type: cell-based; settings: Acinetobacter baumannii, CDC0033, read-out: MIC, A. baumannii CDC-0033
[2] = tested on: P. aeruginosa (ΔmexAB-oprM); assay: Broth microdilution MIC in iron-depleted CAMHB (IDM); assay type: cell-based; settings: Pseudomonas aeruginosa; iron-depleted CAMHB (IDM); […]; read-out: Minimum inhibitory concentration, P. aeruginosa ΔmexAB-oprM
P. aeruginosa CDC-0095 = assay: microbe, parasite or virus in culture; assay type: cell-based; settings: Pseudomonas aeruginosa, CDC0095, read-out: Minimum inhibitory concentration, P. aeruginosa CDC-0095
P. aeruginosa CDC-0110 = assay: microbe, parasite or virus in culture; assay type: cell-based; settings: Pseudomonas aeruginosa, CDC0110, read-out: Minimum inhibitory concentration, P. aeruginosa CDC-0110
A. baumannii CDC-0036 = assay: microbe, parasite or virus in culture; assay type: cell-based; settings: Acinetobacter baumannii, CDC0036, read-out: MIC, A. baumannii CDC-0036
[3] = molecular target: T2, PBP3 from Pseudomonas aeruginosa (PAO1) (Pseudomonas aeruginosa, UniProt G3XD46); assay: Bocillin-FL fluorescence polarization competition binding, P. aeruginosa PBP3; settings: Binding affinity to P. aeruginosa PBP3; fluorescence polarization competition binding assay using Bocillin-FL; read-out: P. aeruginosa PBP3 Potency
T2 construct: made in house
T2 sequence (G3XD46 whole entry): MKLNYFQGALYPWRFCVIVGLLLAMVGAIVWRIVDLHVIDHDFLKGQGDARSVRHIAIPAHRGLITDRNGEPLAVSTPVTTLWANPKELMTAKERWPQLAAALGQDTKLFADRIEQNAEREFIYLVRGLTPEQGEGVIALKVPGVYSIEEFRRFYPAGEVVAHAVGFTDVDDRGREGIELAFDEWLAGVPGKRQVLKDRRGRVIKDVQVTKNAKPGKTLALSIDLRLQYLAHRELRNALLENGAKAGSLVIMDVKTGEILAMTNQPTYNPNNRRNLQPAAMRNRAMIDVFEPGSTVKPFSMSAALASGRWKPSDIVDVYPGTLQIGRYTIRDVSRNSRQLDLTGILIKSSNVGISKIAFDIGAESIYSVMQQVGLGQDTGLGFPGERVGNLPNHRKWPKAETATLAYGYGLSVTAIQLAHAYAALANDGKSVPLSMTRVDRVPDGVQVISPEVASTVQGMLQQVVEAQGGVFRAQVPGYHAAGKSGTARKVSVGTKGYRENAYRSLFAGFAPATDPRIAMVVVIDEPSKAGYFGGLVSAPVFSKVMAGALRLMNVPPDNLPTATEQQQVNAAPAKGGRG
How it was run: as §1

P. aeruginosa ATCC 35151 = assay: microbe, parasite or virus in culture; assay type: cell-based; settings: Pseudomonas aeruginosa, ATCC35151, read-out: Minimum inhibitory concentration, P. aeruginosa ATCC 35151
A. baumannii 1258916 = assay: microbe, parasite or virus in culture; assay type: cell-based, Acinetobacter baumannii; settings: Acinetobacter baumannii, 1258916, read-out: MIC, A. baumannii 1258916

Compound	IC50 [1]	MIC (A. baumannii CDC-0033)	MIC [2]	MIC (P. aeruginosa CDC-0095)	MIC (P. aeruginosa CDC-0110)	MIC (A. baumannii CDC-0036)	IC50 [3]	MIC (P. aeruginosa ATCC 35151)	MIC (A. baumannii 1258916)
O=C(O)c1c(F)ccc2c1OB(O)[C@@H](NC(=O)[C@H](NC(=O)N1CCN(C3CCN(C(=O)c4cccc(O)c4)CC3)C1=O)c1cc(F)c(O)c(O)c1Cl)C2 (single isomer, unassigned) [Example 430]	< 10 µM	8 to 16 µg/mL (≈ 10.6 to 21.1 µM)	< 1 µg/mL	< 1 µg/mL	< 1 µg/mL	8 to 16 µg/mL (≈ 10.6 to 21.1 µM)	< 10 µM	< 1 µg/mL	8 to 16 µg/mL (≈ 10.6 to 21.1 µM)
O=C(O)c1c(F)ccc2c1OB(O)[C@@H](NC(=O)[C@H](NC(=O)N1CCN(C3CCN(C(=O)c4cccc(O)c4F)CC3)C1=O)c1cc(F)c(O)c(O)c1Cl)C2 (single isomer, unassigned) [Example 431]	< 10 µM	< 1 µg/mL	< 1 µg/mL	< 1 µg/mL	< 1 µg/mL	< 1 µg/mL	< 10 µM	< 1 µg/mL	< 1 µg/mL
O=C(O)c1c(F)ccc2c1OB(O)[C@@H](NC(=O)[C@H](NC(=O)N1CCN(C3CCN(C(=O)c4cccc(O)c4Cl)CC3)C1=O)c1cc(F)c(O)c(O)c1Cl)C2 (single isomer, unassigned) [Example 432]	< 10 µM	2 to 4 µg/mL (≈ 2.52 to 5.05 µM)	< 1 µg/mL	< 1 µg/mL	< 1 µg/mL	2 to 4 µg/mL (≈ 2.52 to 5.05 µM)	< 10 µM	< 1 µg/mL	< 1 µg/mL
O=C(O)c1c(F)ccc2c1OB(O)[C@@H](NC(=O)[C@H](NC(=O)N1CCN(C3CCN(C(=O)c4cc(O)ccc4F)CC3)C1=O)c1cc(F)c(O)c(O)c1Cl)C2 (single isomer, unassigned) [Example 433]	< 10 µM	< 1 µg/mL	< 1 µg/mL	< 1 µg/mL	< 1 µg/mL	< 1 µg/mL	< 10 µM	< 1 µg/mL	< 1 µg/mL
O=C(O)c1c(F)ccc2c1OB(O)[C@@H](NC(=O)[C@H](NC(=O)N1CCN(C3CCN(C(=O)c4cc(O)ccc4Cl)CC3)C1=O)c1cc(F)c(O)c(O)c1Cl)C2 (single isomer, unassigned) [Example 434]	< 10 µM	< 1 µg/mL	< 1 µg/mL	< 1 µg/mL	< 1 µg/mL	< 1 µg/mL	< 10 µM	< 1 µg/mL	< 1 µg/mL
O=C(O)c1c(F)ccc2c1OB(O)[C@@H](NC(=O)[C@H](NC(=O)N1CCN(C3CCN(C(=O)c4ccc(F)c(O)c4)CC3)C1=O)c1cc(F)c(O)c(O)c1Cl)C2 (single isomer, unassigned) [Example 435]	10 to 50 µM	< 1 µg/mL	< 1 µg/mL	< 1 µg/mL	< 1 µg/mL	< 1 µg/mL	< 10 µM	< 1 µg/mL	< 1 µg/mL
O=C(O)c1c(F)ccc2c1OB(O)[C@@H](NC(=O)[C@H](NC(=O)N1CCN(C3CCN(C(=O)c4cc(O)cc(F)c4)CC3)C1=O)c1cc(F)c(O)c(O)c1Cl)C2 (single isomer, unassigned) [Example 436]	< 10 µM	< 1 µg/mL	< 1 µg/mL	< 1 µg/mL	< 1 µg/mL	< 1 µg/mL	< 10 µM	< 1 µg/mL	< 1 µg/mL
O=C(O)c1c(F)ccc2c1OB(O)[C@@H](NC(=O)[C@H](NC(=O)N1CCN(C3CCN(C(=O)c4ccc(F)c(O)c4F)CC3)C1=O)c1cc(F)c(O)c(O)c1Cl)C2 (single isomer, unassigned) [Example 437]	< 10 µM	< 1 µg/mL	< 1 µg/mL	< 1 µg/mL	< 1 µg/mL	< 1 µg/mL	< 10 µM	< 1 µg/mL	< 1 µg/mL
